Like-named read-outs stand apart in the source and are kept apart here.
Experiments:
A431 cells = assay: In vitro cell-based assay of non-specific binding, A431 cells; details: dyes compared to 800CW
Text: (§1) FIGS. 2A, and 2B illustrate in vitro cell-based analyses for A549 cells (A) and A431 cells (B).
(§2) In vitro cell-based assays with two carcinoma cell lines (A431 and A549) were done to assess non-specific binding of the compound of Formula 1 and the compound of Formula 2. The dyes were compared to 800CW.
(§3) The fluorescence in each well was quantified with the instrument software.

A549 cells = assay: In vitro cell-based assay of non-specific binding, A549 cells; details: dyes compared to 800CW
Text: as §1, §2, §3

[1] = Clearance profiles by whole-animal fluorescence imaging (dorsal and ventral) in nude mice; type: in vivo
Protocol: (§4) Animals injected with the probes were imaged over time using the 800 fluorescence channel of the Pearl Impulse Imaging System (LI-COR Biosciences). Clearance profiles for 800CW, the compound of Formula 1, and the compound of Formula 2 were carried out in nude mice (dose of 1 nmole for all compounds). Serial images and excised organs were evaluated over a 24 hr period. A Pearl Impulse small animal imaging system was used for all animal and organ image acquisitions.
Non-invasive imaging will not capture signals for the full depth of the animal but the intensity values are useful to show a relative trend.
Another way of examining fluorescence signals is by measuring the % of the compound remaining at a particular time point. The 30 min time point is the baseline to which other time points are normalized.
The percent signal remaining at each time is shown with the 30 min time point post-injection, which is used as the baseline.

[2] = Excised organs imaged at 24 hrs; type: in vivo, nude mice; details: for detected in the brain: excised organs at 24 hrs
Protocol: as §4
Organs were excised at 24 hrs and imaged.

[3] = Excised organ evaluation at 24 hrs and 72 hrs; type: in vivo, mouse
Text: FIGS. 11A-11H show images of various mouse organs after administration. Fluorescence images of various mouse organs at 24 and 72 hrs post-administration for the comparative control (FIG. 11A), compound of Formula 1 (FIGS. 11C and 11E) and compound of Formula 2 (FIGS. 11B and 11D). Organs examined included: heart (Ht), lungs (Ln), kidney (Kd), liver (Lv), spleen (Spl), intestine (Int), brain (Br), and muscle (Ms). […] FIGS. 11F-11H show intraoperative fluorescence (800 nm, compound of Formula 2) (FIG. 11G), white light (FIG. 11F), and composite images of the liver, gall bladder, and bile duct for compound of Formula 2 (0.1 nmole) (FIG. 11H).
Fluorescent signal intensities of various organs were examined at 24 hrs and 72 hrs for the compound of Formula 1 and the compound of Formula 2 (FIG. 11A-11E). Organs examined included: heart (Ht), lungs (Ln), kidney (Kd), liver (Lv), spleen (Spl), intestine (Int), brain (Br), and muscle (Ms).

[4] = Elimination routes in mice: serial whole animal imaging and organ imaging; type: in vivo, nude mice; details: for plasma protein binding: inferred from liver retention / clearance; for excretion / elimination route: 1 nmole by tail vein injection; for signal in kidneys and liver, organ 1/10th LUT scale: organs harvested after 24 hours, 1 nmole tail vein
Protocol: This example describes an experiment to evaluate the excretion of the dyes described herein from animals injected with such. The dyes tested were stable cyanine dyes (IRdyes): 800CW, 800BK-sulfonate (compound of Formula 1; 800BK or BK) and 800BK-NOS (compound of Formula 2; 800NOS or NOS). In this study 12 nude mice (3 per treatment group) were injected with either (1) no probe (control group); (2) 800CW; (3) 800NOS; or (4) 800BK. The three probes (800CW-1166 g/mole (should have been 1091.1 g/mole), 800NOS-1011.09 g/mole, and 800BK-1113.14 g/mole) were dissolved in PBS. A spot test of the three probes was performed to detect the fluorescent signal when diluted to the injection dose of 1 nmole/100 μl (FIG. 12).
The mice received 1 nmole of dye by tail vein injection. The mice were imaged serially over 24 hours after IV injection: 5 minutes, 1 hour, 2 hours, 4 hours, 6 hours and 24 hours after injection. A representative series of images are presented in FIGS. 13A-13C of one animal per dye. All the data was normalized to the same LUT. A control mouse (no probe) was used as a reference (no signal control). Imaging was performed using the Pearl® Trilogy Imaging System (LI-COR®).
The mice were then sacrificed and their organs and tissue (i.e., liver, kidney, lungs, spleen and muscle) were harvested. The organs were imaged to detect fluorescence. When the same LUT was used for the animal and organ images, fluorescence in the organs was not detectable. As such, the low end of the animal scale was expanded such that the images of the organs could be evaluated (FIG. 14). For example, the “Organs 1/10th scale” was used for the images of FIGS. 15A-15D and the “Organs 1/100th scales was used for the images of FIGS. 16A-16D.

[5] = Solubility in water or aqueous media; type: physicochemical; details: for concentration when re-suspended in water: in some embodiments; for solubility in water: stated as 'can be'
[6] = Excitation and emission of the NIR imaging probe; type: physicochemical
Text: The NIR imaging probe used was the compound of Formula 1; excitation 773 nm and emission 790 nm or independently, Formula 2, excitation 772 nm and emission 787 nm.

[7] = mouse, in vivo
[8] = Biliary tract imaging, comparison with ICG and dose response; type: in vivo, mouse; details: for time post-intravenous administration by which gall bladder is visible: continues visible at 2 hrs and 5 hrs
Protocol: A Pearl Impulse small animal imaging system was used for all animal and organ image acquisitions.
A comparison of the dose responses for the compound of Formula 2 are shown in FIG. 10B (1 nmole), FIG. 10C (0.5 nmole), and FIGS. 10D and 10E (0.1 nmole) at time periods of 1 min, 30 min, 2 hrs, 5 hrs, and 24 hrs. All images are presented using the same LUT table except FIG. 10E where the LUT for FIG. 10D has been reduced to brighten the 800 nm signal so they are visible.

[9] = Fluorescent signal analysis of mouse urine; details: urine extracted with acetonitrile:methanol; Odyssey CLx, 800 nm
[10] = 30 min post-injection (baseline), 1 nmole, whole body, ventral view
[11] = 120 min post-injection, normalized to 30 min, 1 nmole
[12] = 300 min post-injection, normalized to 30 min, 1 nmole
[13] = 1440 min post-injection, normalized to 30 min, 1 nmole

Row | Structure (SMILES) | non-specific binding (A431 cells) | non-specific binding (A549 cells) | clearance pattern (route), ventral images ([1]; 1 nmole) | percent signal remaining [1, 10] | percent signal remaining [1, 11] | percent signal remaining [1, 12] | percent signal remaining [1, 13] | detected in the brain [2] | fluorescent signal in excised organs ([3]; 24 hrs post administration) | fluorescent signal in excised organs ([3]; 72 hrs post administration) | plasma protein binding [4] | retention time in the liver ([4]; nude mice, 1 nmole IV) | excretion / elimination route ([4]; nude mice) | signal in kidneys and liver, organ 1/10th LUT scale [4] | concentration when re-suspended in water [5] | solubility in water [5] | emission [6] | excitation [6] | other results
1 | CC1(C)C(/C=C/C2=C(Oc3ccc(S(=O)(=O)O)cc3)C(=C/C=C3/N(CCCCS(=O)(=O)O)c4ccc(S(=O)(=O)[O-])cc4C3(C)C)/CCC2)=[N+](CCCCS(=O)(=O)O)c2ccc(S(=O)(=O)O)cc21 [Compound of Formula 1, 2-((E)-2-((E)-3-(2-((E)-3,3-dimethyl-5-sulfonato-1-(4-sulfonatobutyl)indolin-2-ylidene)ethylidene)-2-(4-sulfonatophenoxy)cyclohex-1-en-1-yl)vinyl)-3,3-dimethyl-1-(4-sulfonatobutyl)-3H-indol-1-ium-5-sulfonate] | more comparable to 800CW | more comparable to 800CW | clear rapidly via the kidney | 100% | 81% | 19% | 1.4% | None | some signal in the liver and kidney | diminished substantially | increased (higher) plasma protein binding of 800BK than 800CW | longer retention time in the liver compared to 800CW and 800NOS | excreted renally | detectable signal | at least 200 mg/mL | highly soluble in water | 790 nm | 773 nm | bladder signal, ventral images ([1]; 1 nmole): strongest signal; movement through tissues and retention in organs ([1]; in vivo data): moves rapidly through the tissues but is retained for an extended period in organs; clearance (whole body fluorescence) compared to compound of Formula 2 ([1]; ventral view, 1 nmole): slower clearance; retention in liver and kidney, excised organs ([2]; 24 hrs post injection): retained at higher levels in the liver and kidney compared to the compound of Formula 2; signal in the liver ([4]; excised organs, 24 hours): higher signal compared to 800CW; primary elimination route [7]: renal
2 | CC1(C)C(/C=C/C2=C(Oc3ccccc3)C(=C/C=C3/N(CCCCS(=O)(=O)O)c4ccc(S(=O)(=O)[O-])cc4C3(C)C)/CCC2)=[N+](CCCCS(=O)(=O)O)c2ccc(S(=O)(=O)O)cc21 [Compound of Formula 2, 2-((E)-2-((E)-3-(2-((E)-3,3-dimethyl-5-sulfonato-1-(4-sulfonatobutyl)indolin-2-ylidene)ethylidene)-2-phenoxycyclohex-1-en-1-yl)vinyl)-3,3-dimethyl-1-(4-sulfonatobutyl)-3H-indol-1-ium-5-sulfonate] | significant increase in non-specific binding compared to either the compound of Formula 1 and 800CW by two-fold | significant increase in non-specific binding compared to either the compound of Formula 1 and 800CW by two-fold | clears through the liver | 100% | 70% | 14% | 1.4% | None | some signal in the liver and kidney | diminished substantially | low plasma protein binding activity | very short retention time in the liver | eliminated from the body via the biliary tract (liver, gall bladder and bile ducts) and intestines | detectable signal | at least 200 mg/mL | highly soluble in water | 787 nm | 772 nm | percent signal remaining ([1]; 120 min post-injection, normalized to 30 min, 1 nmole, listed as compound of Formula 2): greatest reduction; fluorescence signal, dorsal view ([1]; 2 hrs post injection, 1 nmole): high signal, emanating in the liver region; whole body signal ([1]; 5 hr post injection, 1 nmole): low compared to 800CW and the compound of Formula 1; whole body fluorescence signal ([1]; ventral view, 1 nmole): lower overall than the signal for 800CW and the compound of Formula 1; liver signals, excised organs ([2]; 24 hrs post injection): lower liver signals at 24 hrs when compared to 800CW and the compound of Formula 1; detection signal in images ([8]; 0.1 nmole dose, same scale as 1 nmole and 0.5 nmole series): very low detection signal; gall bladder target region visibility ([8]; 0.1 nmole dose, scale adjusted (FIG. 10E)): visible on a very low background; time post-intravenous administration by which gall bladder is visible ([8]; 0.5 nmole dose): ≤ 30 min; time post-intravenous administration by which gall bladder is visible ([8]; 1 nmole dose): ≤ 30 min; intestinal signal ([4]; 24 hours post injection): barely detectable; clearance from the whole body to the biliary system ([4]; nude mice, 1 nmole IV): rapid; excretion into the intestines ([4]; nude mice, 1 nmole IV): rapid excretion into the intestines; time at which the liver was visible ([4]; nude mice, 1 nmole IV): 15 min; time during which predominant signal was in the intestines ([4]; nude mice, 1 nmole IV): 2 to 6 h; fluorescent signal in urine [7]: slight fluorescence
3 | CC1(C)C(/C=C/C=C/C=C/C=C2/N(CCCCS(=O)(=O)[O-])c3ccc4ccccc4c3C2(C)C)=[N+](CCCCS(=O)(=O)[O-])c2ccc3ccccc3c21.[Na+] [ICG, indocyanine green] | – | – | – | – | – | – | – | – | – | – | – | – | – | – | – | – | – | – | fluorescent signal in urine [9]: No fluorescent signal
